Assay [1] addresses T1, human full-length glucocorticoid receptor (Homo sapiens, UniProt P04150).
T1 sequence (P04150 1-777): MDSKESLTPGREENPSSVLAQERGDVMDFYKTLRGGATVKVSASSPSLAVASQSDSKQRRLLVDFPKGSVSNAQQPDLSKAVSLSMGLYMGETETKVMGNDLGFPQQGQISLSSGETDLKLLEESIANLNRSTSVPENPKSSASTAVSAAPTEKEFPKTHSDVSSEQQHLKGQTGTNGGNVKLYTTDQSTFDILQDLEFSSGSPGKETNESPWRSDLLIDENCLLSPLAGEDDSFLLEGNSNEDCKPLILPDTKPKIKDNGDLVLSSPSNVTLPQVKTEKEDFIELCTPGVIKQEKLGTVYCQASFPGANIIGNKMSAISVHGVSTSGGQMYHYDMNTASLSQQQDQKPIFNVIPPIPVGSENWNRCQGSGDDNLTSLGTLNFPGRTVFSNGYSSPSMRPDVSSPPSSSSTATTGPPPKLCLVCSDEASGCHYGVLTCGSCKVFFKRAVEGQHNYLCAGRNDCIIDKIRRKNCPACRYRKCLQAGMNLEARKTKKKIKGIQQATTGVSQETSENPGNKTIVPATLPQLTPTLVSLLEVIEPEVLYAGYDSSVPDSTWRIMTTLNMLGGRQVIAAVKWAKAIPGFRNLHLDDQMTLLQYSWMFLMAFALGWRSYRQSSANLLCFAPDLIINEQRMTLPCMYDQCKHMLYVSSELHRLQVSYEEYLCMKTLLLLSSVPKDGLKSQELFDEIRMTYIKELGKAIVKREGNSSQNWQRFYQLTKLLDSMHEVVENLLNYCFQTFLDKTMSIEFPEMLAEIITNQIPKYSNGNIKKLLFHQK
As to the kind of experiment: Glucocorticoid Receptor Binding Assay (II), fluorescence polarization, FITC-dexamethasone. Further details: recombinantly expressed human full-length glucocorticoid receptor; purchased PanVera Co., Madison P2816. Particulars: GR Binding Assay (II); read-out: GR (Ki, nM) (GR Binding Assay (II)). As for the experimental part: Glucocorticoid Receptor Binding Assay (II)^b
In order to measure the binding of compounds on the glucocorticoid receptor a commercially available kit was used (Glucocorticoid receptor competitor assay kit, PanVera Co., Madison, W1, P2816). Briefly, a cell lysate containing recombinantly expressed human full-length glucocorticoid receptor was mixed with a fluorescently labeled glucocorticoid (4 nM FITC-dexamethasone) plus or minus test molecule. After one hour at room temperature, the fluorescence polarization (FP) of the samples were measured. […] Test molecules were analyzed in the concentration range from 0.1 nM to 40 μM.
On the technique in general: Fluorescence polarisation rises when a labelled molecule tumbles more slowly, as on binding a larger partner.

The subject of assay [2] is AP-1 induced transcriptional activity. The assay is described as follows: Cellular Transrepressional Assay (AP-1 luciferase reporter, PMA-activated A549 cells). Particulars: Homo sapiens, A549, 7 h, maximum inhibition, Cellular Transrepression Assay; read-out: AP-1 Max % inh (Cellular Transrepression Assay). The assay is classed as cell-based. The method in brief: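 A549 cells stably carrying a 7× AP-1–luciferase reporter were stimulated with 10 ng/ml PMA with or without compound (0.1 nM–40 μM) for 7 h. Luminescence read 10 min after luciferase reagent; EC50 fitted from % decrease versus PMA-only signal.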

For assay [3], the target named is T1, human full-length glucocorticoid receptor. As to the kind of experiment: Glucocorticoid Receptor Binding Assay (I), fluorescence polarization, Fluormone GS Red. Further details: purified human recombinant full-length glucocorticoid receptor; purchased Invitrogen Part #2893. Particulars: GR Binding Assay (I); read-out: GR (Ki, nM) (GR Binding Assay (I)). A digest of the protocol:
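Fluorescence polarization competition: 2 nM purified full-length recombinant receptor with 1 nM Fluormone GS Red tracer, ±test compound over 8.5E-05 to 5 μM. Incubation was 2 h at room temperature in the dark before reading FP.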

The Ki is a dissociation constant, usually derived from enzyme kinetics or from competition with a known ligand.

SMILES strings stand for the structures.

Take `CC(C)(C(=O)Nc1nncs1)[C@H]1c2ccccc2Oc2nc(NC(=O)c3ccccc3)ccc21` [Example 152]: in assay [1], the inhibition constant (Ki) came to 10.9 nM. On to `CC(C)(C(=O)Nc1nccs1)[C@@H]1c2ccccc2Oc2cc(O)ccc21` [Example 94], for which the Ki in assay [1] came to 404 nM. On to `Cc1cnc(NC(=O)C(C)(C)[C@@H]2c3ccccc3Oc3cc(O)ccc32)s1` [Example 92], for which the Ki in assay [1] came out at 1200 nM. Turning to `COc1ccc2c(c1)Oc1ccccc1[C@H]2C(C)(C)C(=O)Nc1nccs1` [Example 56], the Ki in assay [1] was determined as 233 nM. Still for that read-out and setting: next, `COC(=O)c1csc(NC(=O)C(C)(C)C2c3ccccc3Oc3cc(O)ccc32)n1` (stereo not drawn) [Example 99]: 18.3 nM; `CCCCNc1ccc2c(c1)Oc1ncccc1C2C(C)(C)C(=O)Nc1nccs1` (stereo not drawn) [Example 155]: 31.8 nM; `COc1ccc(CNc2ccc3c(n2)Oc2ccccc2[C@H]3C(C)(C)C(=O)Nc2nncs2)cc1` (racemic) [Example 136]: 141 nM.

Consider `COc1ccc2c(c1)Oc1ccccc1[C@@H]2C(C)(C)C(=O)Nc1nccs1` [Example 60], for which, in assay [1], the Ki is 35.7 nM.

For `CC(C)(C(=O)Nc1nncs1)[C@H]1c2ccccc2Oc2nc(N3CCCCCC3)ccc21` [Example 146], the Ki in assay [1] was found to be 37 nM.

Take `CCOC(=O)c1csc(NC(=O)C(C)(C)C2c3ccccc3CCc3ccccc32)n1` [Example 23]: the Ki in assay [1] was determined as 445 nM. In the case of `CC(C)Nc1ccc2c(n1)Oc1ccccc1C2C(C)(C)C(=O)Nc1nccs1` (stereo not drawn) [Example 157], the Ki in assay [1] came out at 186 nM.

As to `CCOC(=O)c1csc(NC(=O)C(C)(C)C2c3ccccc3Oc3cc(OCOCCOC)ccc32)n1` (stereo not drawn) [Example 97], the Ki in assay [1] came out at 296 nM. Turning to `CC1CC(C)CN(C(=O)c2ccc(-c3ccc4c(n3)Oc3ccccc3[C@@H]4C(C)(C)C(=O)Nc3nncs3)cc2)C1` (stereo partly drawn) [Example 305], in assay [2], the Emax was 38.3%. The Ki in assay [3] stood at 24.7 nM. Regarding `CC(C)(C(=O)Nc1nncs1)[C@H]1c2ccccc2Oc2nc(N3CCCC(c4ccccc4)C3)ccc21` (stereo partly drawn) [Example 147], the Ki in assay [1] was 4030 nM. Regarding `C[C@H](Nc1ccc2c(n1)Oc1ccccc1[C@@H]2C(C)(C)C(=O)Nc1nncs1)c1ccccc1` [Example 142], the Ki in assay [1] was determined as 156 nM. For `COC(=O)CN(C)C(=O)c1ccc(-c2ccc3c(n2)Oc2ccccc2[C@@H]3C(C)(C)C(=O)Nc2nncs2)cc1` [Example 293], the Emax in assay [2] worked out at 25.4%. For the same compound, the Ki in assay [3] turned out to be 10.4 nM. For `CC(=O)N[C@@H]1CCN(C(=O)c2ccc(-c3ccc4c(n3)Oc3ccccc3[C@@H]4C(C)(C)C(=O)Nc3nncs3)cc2)C1` [Example 306] the same measures were 43.5% and 9.85 nM. For `COc1ccc2c(c1)Oc1ccccc1[C@@H]2C(C)(C)C(=O)Nc1nncs1` [Example 62], in assay [1], the Ki is 58 nM.

On to `CN(CCS(C)(=O)=O)C(=O)c1ccc(-c2ccc3c(n2)Oc2ccccc2[C@@H]3C(C)(C)C(=O)Nc2nncs2)cc1` [Example 286], for which the Emax in assay [2] turned out to be 49.8%. Besides, the Ki in assay [3] is 12.2 nM. Consider `CC(C)(C(=O)Nc1nccs1)C1c2ccccc2Oc2c(O)cccc21` (stereo not drawn) [Example 81], for which, in assay [1], the Ki was determined as 243 nM.

As for `CC(C)(C(=O)Nc1nncs1)[C@H]1c2ccccc2Oc2nc(-c3ccc(C(=O)N4CCN(CCO)CC4)cc3)ccc21` [Example 275], the Emax in assay [2] stood at 26%. For the same compound, in assay [3], the Ki was determined as 2.6 nM. For the compound `COc1cccc2c1Oc1ccccc1C2C(C)(C)C(=O)Nc1nccs1` (stereo not drawn) [Example 84], the Ki in assay [1] turned out to be 104 nM. As to `CC(C)(C(=O)Nc1nncs1)[C@H]1c2ccccc2Oc2nc(N3CCC(=O)CC3)ccc21` [Example 161], the Ki in assay [1] is 36.6 nM. Turning to `CC(C)(C(=O)Nc1nncs1)[C@H]1c2ccccc2Oc2nc(-c3ccc(C(=O)N4CCCN(Cc5ccccc5)CC4)cc3)ccc21` [Example 298], in assay [2], the Emax is 25.4%. In addition, the Ki in assay [3] was found to be 242 nM. In the case of `Cc1cnc(NC(=O)C(C)(C)C2c3ccccc3Oc3ncccc32)s1` (stereo not drawn) [Example 69], the Ki in assay [1] stood at 515 nM. For `CN(C)c1ccc2c(n1)Oc1ccccc1[C@@H]2C(C)(C)C(=O)Nc1nncs1` [Example 149], the Ki in assay [1] came out at 11 nM.

Take `Cc1nnc(NC(=O)C(C)(C)C2c3ccccc3Oc3ncccc32)s1` (stereo not drawn) [Example 71]: the inhibition constant Ki in assay [1] worked out at 517 nM.

Turning to `Cc1csc(NC(=O)C(C)(C)[C@@H]2c3ccccc3Oc3cc(O)ccc32)n1` [Example 93], the inhibitory constant (Ki) in assay [1] came out at 1270 nM. Still for that read-out and setting: next, `COc1ccc(-c2ccc3c(n2)Oc2ccccc2[C@H]3C(C)(C)C(=O)Nc2nncs2)cc1` [Example 162]: 256 nM. The same measure, in the same setting: the result for `CC(C)(C(=O)Nc1nncs1)[C@@H]1c2ccccc2Oc2nc(N3CCCCC3)ccc21` [Example 134] reads 444 nM. In the case of `CN(Cc1ccncc1)C(=O)c1ccc(-c2ccc3c(n2)Oc2ccccc2[C@@H]3C(C)(C)C(=O)Nc2nncs2)cc1` [Example 301], the Emax in assay [2] is 28.6%. Besides, the Ki in assay [3] is 20.3 nM. On to `CC1CN(C(=O)c2ccc(-c3ccc4c(n3)Oc3ccccc3[C@@H]4C(C)(C)C(=O)Nc3nncs3)cc2)CC(C)O1` (stereo partly drawn) [Example 273], for which, in assay [2], the Emax amounted to 21%. The Ki in assay [3] was 19.9 nM. Consider `CC(C)(C(=O)Nc1nccs1)C1c2ccccc2Oc2ccccc21` [Example 37], for which the Ki in assay [1] is 1.4 nM. In the case of `CC(C)(C(=O)Nc1nncs1)[C@H]1c2ccccc2Oc2cc(C#N)ccc21` [Example 112], in assay [1], the Ki was 9.3 nM.

For `CC(=O)N1CCCN(C(=O)c2ccc(-c3ccc4c(n3)Oc3ccccc3[C@@H]4C(C)(C)C(=O)Nc3nncs3)cc2)CC1` [Example 277], the Emax in assay [2] was found to be 24.5%. Moreover, in assay [3], the Ki came out at 81.3 nM. `CC(C)(C(=O)Nc1nccs1)C1c2ccccc2Oc2nc(Cl)ccc21` (stereo not drawn) [Example 75]: in assay [1], the Ki turned out to be 29 nM. Take `CN(CCc1ccccc1)C(=O)c1ccc(-c2ccc3c(n2)Oc2ccccc2[C@@H]3C(C)(C)C(=O)Nc2nncs2)cc1` [Example 276]: in assay [2], the Emax amounted to 27.2%. Further, the Ki in assay [3] came out at 4.05 nM. As for `CC(C)(C(=O)Nc1nncs1)[C@H]1c2ccccc2Oc2nc(N3CCCCC3)ccc21` [Example 138], the Ki in assay [1] was determined as 11.4 nM. For `COC[C@H]1CCCN1C(=O)c1ccc(-c2ccc3c(n2)Oc2ccccc2[C@@H]3C(C)(C)C(=O)Nc2nncs2)cc1` [Example 285], the Emax in assay [2] was found to be 45.3%. The Ki in assay [3] is 5.84 nM. In the case of `CC(C)(C(=O)Nc1nncs1)C1c2ccccc2Oc2nc(Cl)ccc21` (stereo not drawn) [Example 76], the Ki in assay [1] worked out at 76.4 nM. For `COC[C@H]1CCCN1c1ccc2c(n1)Oc1ccccc1[C@@H]2C(C)(C)C(=O)Nc1nncs1` [Example 145], the Ki in assay [1] worked out at 1160 nM. For `CCS(=O)(=O)N1CCN(C(=O)c2ccc(-c3ccc4c(n3)Oc3ccccc3[C@@H]4C(C)(C)C(=O)Nc3nncs3)cc2)CC1` [Example 283], in assay [2], the Emax worked out at 24.6%. Further, in assay [3], the inhibitory constant (Ki) was found to be 9.21 nM. For `CN(C)[C@@H]1CCN(C(=O)c2ccc(-c3ccc4c(n3)Oc3ccccc3[C@@H]4C(C)(C)C(=O)Nc3nncs3)cc2)C1` [Example 307] the same measures were 37.1% and 67.5 nM.

As for `CN(CCO)C(=O)c1ccc(-c2ccc3c(n2)Oc2ccccc2[C@@H]3C(C)(C)C(=O)Nc2nncs2)cc1` [Example 294], the Emax in assay [2] amounted to 59.4%. Besides, the Ki in assay [3] was determined as 29.3 nM. `COC1CN(C(=O)c2ccc(-c3ccc4c(n3)Oc3ccccc3[C@@H]4C(C)(C)C(=O)Nc3nncs3)cc2)C1` [Example 289]: the Emax in assay [2] turned out to be 24.3%. Also, in assay [3], the Ki was determined as 20 nM. The corresponding values for `CC(C)(C(=O)Nc1nncs1)[C@H]1c2ccccc2Oc2nc(-c3ccc(C(=O)N4CCC(S(C)(=O)=O)C4)cc3)ccc21` (stereo partly drawn) [Example 288] are 35.5% and 13.8 nM. Regarding `CC(C)(C(=O)Nc1nncs1)[C@H]1c2ccccc2Oc2nc(-c3ccc(C(=O)NCc4ccccc4)cc3)ccc21` [Example 349], the Emax in assay [2] came out at 31.7%. The Ki in assay [3] was 5.88 nM. Turning to `CC(C)(C(=O)Nc1nncs1)[C@H]1c2ccccc2Oc2nc(-c3ccc(C(=O)N4CCCN(CCO)CC4)cc3)ccc21` [Example 303], the Emax in assay [2] worked out at 28.6%. For the same compound, the Ki in assay [3] came to 278 nM.

The record behind these values is US8034940B2, “Modulators of glucocorticoid receptor, AP-1, and/or NF-κB activity and use thereof” (Bristol-Myers Squibb Company, priority 2006, dated 2011).
